Experiments:
sTeLIC [1] = biological target: T1, sTeLIC (endosymbiont of Tevnia jerichonana, UniProt G2FID1); test: two-electrode voltage clamp, Xenopus laevis oocytes; format: cell-based; design: gene TevJSym_bc00020; homopentamer (C5); oocyte rows: sTeLIC cDNA in vector pMT3, Xenopus laevis oocytes; settings: pH 8.5 (~EC20), 30-s coapplication, -40 mV
T1 sequence (G2FID1 1-320): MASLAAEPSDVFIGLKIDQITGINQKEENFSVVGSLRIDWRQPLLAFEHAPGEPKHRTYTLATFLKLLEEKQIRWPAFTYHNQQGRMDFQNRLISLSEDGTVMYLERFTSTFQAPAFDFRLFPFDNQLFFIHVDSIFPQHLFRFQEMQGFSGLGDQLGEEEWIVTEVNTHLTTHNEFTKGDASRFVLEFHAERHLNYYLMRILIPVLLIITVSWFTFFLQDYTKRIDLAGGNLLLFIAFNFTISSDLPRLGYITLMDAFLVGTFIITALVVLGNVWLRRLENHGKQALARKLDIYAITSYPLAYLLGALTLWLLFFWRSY

sTeLIC [2] = biological target: T1, sTeLIC; test: X-ray co-crystal structure, […] A, anomalous Br signal; format: binding; design: gene TevJSym_bc00020; homopentamer (C5); oocyte rows: sTeLIC cDNA in vector pMT3, Xenopus laevis oocytes; structures: N-terminal MBP fusion (pET20b, E. coli C43(DE3)), MBP cut off with thrombin; settings: pH 8.0, DDM/NDG detergent, 3 mM ligand; vestibular site, open state
sTeLIC [3] = biological target: T1, sTeLIC; test: cryo-EM structure; format: binding; design: gene TevJSym_bc00020; homopentamer (C5); oocyte rows: sTeLIC cDNA in vector pMT3, Xenopus laevis oocytes; structures: N-terminal MBP fusion (pET20b, E. coli C43(DE3)), MBP cut off with thrombin; settings: pH 7.5, saposin nanodisc, 2 mM FFC-8; density in vestibular site, open state

| SMILES | % modulation (sTeLIC [1]; positive allosteric modulator, vestibular site, up to 200 uM) | X-ray co-crystal structure, 3.2 A, anomalous Br signal (sTeLIC [2]) | % modulation (sTeLIC [1]; positive modulator, micromolar concentrations) | cryo-EM structure (sTeLIC [3]) |
| --- | --- | --- | --- | --- |
| C[C@H](N)Cc1ccc(Br)cc1 [BrAmp] | BrAmp showed positive modulatory effects similar to BrCA | Anomalous signal from the bromine atom of BrAmp allowed definitive placement in the vestibular pocket | – | – |
| C[N+](C)(C)CCOP(=O)([O-])OCCC(F)(F)C(F)(F)C(F)(F)C(F)(F)C(F)(F)C(F)(F)F [FFC-8] | – | – | micromolar concentrations of FFC-8 potentiated sTeLIC currents in oocytes | This density could reasonably accommodate fluorinated fos-choline-8 (FFC-8) |
